{
  "source": "patent US5866682A",
  "about": "(priority 1997, dated 1999)",
  "origin": "cited, not measured here",
  "test_system": "α3β2 and α3β4 receptors",
  "data": [
    {"substance": "α-conotoxin MII", "values": [
      {"measurement": "binding sites and toxin molecules required to block function", "result": "has two binding sites on α3β2 and α3β4 receptors expressed in Xenopus oocytes and only one toxin molecule is required to block function"},
      {"measurement": "block of native nAChRs", "result": "blocks native α3β2-containing nAChRs and α3β4 conataining nAChRs"},
      {"measurement": "discrimination between the α3β2 and α3β4 interface", "result": "four orders-of-magnitude"}
    ]}
  ]
}
